Data on nine compounds can be found in PubChem BioAssay (NCI).

SMILES strings stand for the structures.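 Values below derive from 48-hour exposures of cells grown in 96-well plates, with endpoints linearly interpolated between the two concentrations bracketing the appropriate inhibition level. GI50 = concentration required for 50% inhibition of growth. TGI denotes the concentration required for complete inhibition of growth.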

Test systems include UACC-62 melanoma; SW-620 colon; HCT-15 colon; SK-MEL-2 melanoma; MOLT-4 leukemia; IGROV1 ovarian; LOX IMVI melanoma; NCI-H226 lung; OVCAR-4 ovarian; SN12C renal.
Assay in all cases: NCI-60 cell line screen, 48 h

With `OCC1OC(n2ccc3cnccc32)CC1O` (stereo not given), the TGI in the assay with UACC-62 melanoma, in the assay on SW-620 colon, in the assay with HCT-15 colon, in the assay with SK-MEL-2 melanoma, with MOLT-4 leukemia and with IGROV1 ovarian was over 100 µM each time. The TGI in the assay with LOX IMVI melanoma, in the assay with NCI-H226 lung, in the assay with OVCAR-4 ovarian and in the assay on SN12C renal was over 100 µM each time.

As for `Clc1ccc(-c2nc(-c3c[nH]c4ncccc34)cs2)cc1`, the GI50 in the assay on UACC-62 melanoma was over 100 µM; in the assay with SW-620 colon, 36.3 µM; with HCT-15 colon, over 100 µM; with SK-MEL-2 melanoma, over 100 µM; with MOLT-4 leukemia, over 100 µM; in the assay on IGROV1 ovarian it was 4.78 µM. For the same compound, the GI50 was over 100 µM with LOX IMVI melanoma, over 100 µM with NCI-H226 lung, 65.8 µM in the assay with OVCAR-4 ovarian and over 100 µM with SN12C renal. The TGI in the assay with UACC-62 melanoma, with SW-620 colon, in the assay on HCT-15 colon, with SK-MEL-2 melanoma, with MOLT-4 leukemia and in the assay on IGROV1 ovarian was over 100 µM throughout. In addition, the TGI in the assay on LOX IMVI melanoma, in the assay on NCI-H226 lung, with OVCAR-4 ovarian and in the assay with SN12C renal was over 100 µM each time.

In the case of `S=c1cn[nH]c2ccc(Br)cc12`, the TGI with UACC-62 melanoma was over 100 µM; in the assay on SW-620 colon, over 100 µM; in the assay on HCT-15 colon, over 100 µM; in the assay on SK-MEL-2 melanoma, 71.3 µM; with MOLT-4 leukemia it was over 100 µM; in the assay on IGROV1 ovarian it was over 100 µM. Further, the TGI in the assay on LOX IMVI melanoma, with NCI-H226 lung, with OVCAR-4 ovarian and in the assay with SN12C renal was over 100 µM in each case.

For the compound `COc1ccc(C2Cc3cc(OC)c(OC)c(OC)c3C2=O)cc1` (stereo not given), the TGI in the assay with UACC-62 melanoma, in the assay on SW-620 colon, in the assay with HCT-15 colon, in the assay with SK-MEL-2 melanoma, with MOLT-4 leukemia and with IGROV1 ovarian was over 100 µM each time. For the same compound, the TGI in the assay with LOX IMVI melanoma, with NCI-H226 lung, with OVCAR-4 ovarian and with SN12C renal was over 100 µM each time.

On to `Nc1nn(C(=O)Nc2ccc(Cc3ccccc3)cc2)c2ccc(Cl)cc12`, for which the GI50 in the assay with UACC-62 melanoma was 0.0397 µM; with SW-620 colon it was 0.724 µM; with HCT-15 colon, 0.0821 µM; in the assay with SK-MEL-2 melanoma it was 16.5 µM; in the assay on MOLT-4 leukemia, 4.87 µM; in the assay on IGROV1 ovarian it was 19.9 µM. Besides, the GI50 in the assay with LOX IMVI melanoma was 0.137 µM; in the assay with NCI-H226 lung it was 13.5 µM; in the assay on OVCAR-4 ovarian, 1.48 µM; in the assay on SN12C renal, 14.2 µM. The TGI is over 100 µM in the assay with UACC-62 melanoma; 54.3 µM with SW-620 colon; over 100 µM in the assay on HCT-15 colon; over 100 µM in the assay on SK-MEL-2 melanoma; 47 µM with MOLT-4 leukemia; over 100 µM in the assay on IGROV1 ovarian. Besides, the TGI is 20.1 µM with LOX IMVI melanoma, over 81.7 µM with NCI-H226 lung, 49 µM in the assay on OVCAR-4 ovarian and 48.1 µM with SN12C renal.

Turning to `CCS(=O)(=O)c1ccc(OC)c(Nc2ncc(-c3cccc(-c4ccccc4F)c3)o2)c1`, the GI50 is over 25 µM in the assay with UACC-62 melanoma; over 25 µM in the assay with SW-620 colon; 16.8 µM with HCT-15 colon; over 25 µM with SK-MEL-2 melanoma; over 25 µM with MOLT-4 leukemia; 6.1 µM in the assay on IGROV1 ovarian. The GI50 in the assay with LOX IMVI melanoma is 15.1 µM; with NCI-H226 lung, 2.24 µM; in the assay with OVCAR-4 ovarian, 3.79 µM; with SN12C renal, 14.8 µM. For the same compound, the TGI in the assay on UACC-62 melanoma is over 25 µM; in the assay on SW-620 colon, over 25 µM; with HCT-15 colon, over 25 µM; with SK-MEL-2 melanoma, over 25 µM; in the assay with MOLT-4 leukemia, over 25 µM; with IGROV1 ovarian, 20.7 µM. For the same compound, the TGI in the assay on LOX IMVI melanoma, with NCI-H226 lung, with OVCAR-4 ovarian and in the assay on SN12C renal was over 25 µM each time.

With `COc1c(Nc2ncc(Cl)c(N[C@@H]3[C@H]4C=CC(C4)[C@@H]3C(N)=O)n2)ccc2c1CC[C@@H](N1CCOCC1)CC2`, the GI50 was 2.81 µM in the assay with UACC-62 melanoma; 2.51 µM in the assay with SW-620 colon; 3.28 µM with HCT-15 colon; 3.39 µM with SK-MEL-2 melanoma; 4.05 µM in the assay with MOLT-4 leukemia; 5.3 µM in the assay on IGROV1 ovarian. For the same compound, the GI50 with LOX IMVI melanoma is 2.11 µM; with NCI-H226 lung it was 3.81 µM; in the assay with OVCAR-4 ovarian, 3.68 µM; in the assay on SN12C renal it was 3.87 µM. Moreover, the TGI with UACC-62 melanoma came to 18.8 µM; with SW-620 colon it was 10.2 µM; in the assay on HCT-15 colon it was 15.3 µM; with SK-MEL-2 melanoma, 11.9 µM; in the assay with MOLT-4 leukemia, 35.5 µM; in the assay with IGROV1 ovarian it was 35.8 µM. Moreover, the TGI was 6.23 µM in the assay on LOX IMVI melanoma, 30.2 µM in the assay on NCI-H226 lung, 23 µM in the assay on OVCAR-4 ovarian and 29.2 µM with SN12C renal.

Consider `O=C1OCC2=C1C(c1ccccc1)c1cc3c(cc1N2CCO)CCC3` (stereo not given), for which the GI50 with UACC-62 melanoma was 0.111 µM; in the assay on SW-620 colon, 0.0879 µM; with HCT-15 colon it was 0.103 µM; in the assay with SK-MEL-2 melanoma it was 0.0901 µM; with MOLT-4 leukemia, 0.307 µM; in the assay on IGROV1 ovarian, 0.0799 µM. Besides, the GI50 is 0.176 µM in the assay on LOX IMVI melanoma, 1.02 µM with NCI-H226 lung, 0.127 µM in the assay with OVCAR-4 ovarian and 0.172 µM in the assay on SN12C renal. Besides, the TGI with UACC-62 melanoma is over 25 µM; in the assay on SW-620 colon, over 25 µM; in the assay with HCT-15 colon it was over 25 µM; in the assay with SK-MEL-2 melanoma, over 8.97 µM; in the assay with MOLT-4 leukemia, over 25 µM; in the assay on IGROV1 ovarian, 0.774 µM. Moreover, the TGI with LOX IMVI melanoma, in the assay on NCI-H226 lung, in the assay with OVCAR-4 ovarian and in the assay with SN12C renal was over 25 µM each time.

Turning to `Cc1cc(=O)cc2sc3cc(Cl)ccc3nc1-2`, the TGI in the assay on UACC-62 melanoma is 20.9 µM; in the assay on SW-620 colon, 29.8 µM; with HCT-15 colon, 16 µM; in the assay on SK-MEL-2 melanoma it was 23.5 µM; in the assay with MOLT-4 leukemia, over 60.8 µM; with IGROV1 ovarian, 52 µM. The TGI in the assay with LOX IMVI melanoma is 24.4 µM; in the assay with NCI-H226 lung it was 65.6 µM; in the assay on OVCAR-4 ovarian, over 85.4 µM; in the assay with SN12C renal, 50.3 µM.
